Measurements as given in patent US8962608B2, “Cycloalkylnitrile pyrazole carboxamides as janus kinase inhibitors” (Merck Sharp & Dohme Corp., priority 2011, dated 2015).

What was measured:
[1] = molecular target: JAK1 (recombinant purified GST-tagged catalytic domain) (Homo sapiens (Human), UniProt P23458); assay: biochemical;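 also: biochemical assay with HTRF read-out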
[2] = molecular target: JAK2 (recombinant purified GST-tagged catalytic domain) (Homo sapiens (Human), UniProt O60674); assay: biochemical;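 also: biochemical JAK kinase assay with HTRF detection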
Sequence of JAK2 (recombinant purified GST-tagged catalytic domain) (O60674 849-1124): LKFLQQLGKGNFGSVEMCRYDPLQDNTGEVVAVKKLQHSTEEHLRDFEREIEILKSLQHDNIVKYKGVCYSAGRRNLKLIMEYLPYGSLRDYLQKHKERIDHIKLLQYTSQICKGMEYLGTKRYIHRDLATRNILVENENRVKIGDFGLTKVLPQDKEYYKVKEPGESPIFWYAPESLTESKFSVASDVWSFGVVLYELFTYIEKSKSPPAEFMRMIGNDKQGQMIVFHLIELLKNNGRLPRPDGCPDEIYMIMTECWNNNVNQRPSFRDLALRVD

Sequence of JAK1 (recombinant purified GST-tagged catalytic domain) (P23458 875-1153): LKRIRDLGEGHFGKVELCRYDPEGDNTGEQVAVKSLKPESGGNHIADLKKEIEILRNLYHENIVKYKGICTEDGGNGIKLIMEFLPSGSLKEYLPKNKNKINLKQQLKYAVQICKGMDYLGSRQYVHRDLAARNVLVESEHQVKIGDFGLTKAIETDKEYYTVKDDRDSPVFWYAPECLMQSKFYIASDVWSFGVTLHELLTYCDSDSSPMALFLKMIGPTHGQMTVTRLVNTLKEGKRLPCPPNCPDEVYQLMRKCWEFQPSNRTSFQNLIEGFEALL

Work on N#Cc1ccc(Nc2nn([C@H]3CC[C@@H](O)C[C@@H]3C#N)cc2C(N)=O)cc1 (single isomer, unassigned) [Example 25-4, 1-[(1S,2S,4R or 1R,2R,4S)-2-cyano-4-hydroxycyclohexyl]-3-[(4-cyanophenyl)amino]-1H-pyrazole-4-carboxamide] yielded an IC50 [1] of 0.55 nM and an IC50 [2] of 3 nM.

C[C@H](N[C@@H]1CC[C@H](n2cc(C(N)=O)c(Nc3ccc(OC(F)(F)F)cc3)n2)[C@@H](C#N)C1)C1CC1 (single isomer, unassigned) [Example 28-55, 1-[(1S,2S,4R or 1R,2R,4S)-2-cyano-4-{[(1S)-1-cyclopropylethyl]amino}cyclo-hexyl]-3-{[4-(trifluoromethoxy)phenyl]amino}-1H-pyrazole-4-carboxamide] showed an IC50 [1] of 4 nM and an IC50 [2] of 200 nM.

Molecule CC(C)(O)C1CN(C(=O)[C@@H]2CC[C@@H](n3cc(C(N)=O)c(Nc4ccc(Cl)cc4)n3)[C@H](C#N)C2)C1 (single isomer, unassigned) [Example 35-3, 3-[(4-chlorophenyl)amino]-1-[(1R,2R,4R or 1S,2S,4S)-2-cyano-4-{[3-(1-hydroxy-1-methylethyl)azetidin-1-yl]carbonyl}cyclohexyl]-1H-pyrazole-4-carboxamide] has an IC50 [1] of 9 nM and an IC50 [2] of 59 nM.

For N#C[C@H]1C[C@@H](C(=O)NC2COC2)CC[C@@H]1n1cc(C(N)=O)c(Nc2ccc(Cl)cc2)n1 (single isomer, unassigned) [Example 35-7, 3-[(4-chlorophenyl)amino]-1-[(1S,2S,4S or 1R,2R,4R)-2-cyano-4-(oxetan-3-ylcarbamoyl)cyclohexyl]-1H-pyrazole-4-carboxamide], the IC50 [1] was 33 nM and the IC50 [2] was 243 nM.

With N#C[C@H]1C[C@H](NC2CCC2)CC[C@@H]1n1cc(C(N)=O)c(Nc2ccc(C(F)(F)F)cc2)n1 (single isomer, unassigned) [Example 30-14, 1-[(1S,2S,4R or 1R,2R,4S)-2-cyano-4-(cyclobutylamino)cyclohexyl]-3-{[4-(trifluoro-methyl)phenyl]amino}-1H-pyrazole-4-carboxamide] the IC50 [1] was 51 nM and the IC50 [2] was 1050 nM.

With N#C[C@H]1C[C@H](NC2COC2)CC[C@@H]1n1cc(C(N)=O)c(Nc2ccc(CC(F)(F)F)cc2)n1 (single isomer, unassigned) [Example 28-77, 1-[(1S,2S,4R or 1R,2R,4S)-2-cyano-4-(oxetan-3-ylamino)cyclohexyl]-3-{[4-(2,2,2-trifluoroethyl)phenyl]amino}-1H-pyrazole-4-carboxamide] the IC50 [1] was 0.7 nM and the IC50 [2] was 4 nM.

With N#Cc1ccc(Nc2nn([C@H]3CC[C@H](O)C[C@@H]3C#N)cc2C(N)=O)cc1 (single isomer, unassigned) [Example 33-6, 1-[(1S,2S,4S or 1R,2R,4R)-2-cyano-4-hydroxycyclohexyl]-3-[(4-cyanophenyl)amino]-1H-pyrazole-4-carboxamide] the IC50 [1] was 0.5 nM and the IC50 [2] was 3 nM.

For N#C[C@H]1C[C@@H](O)CC[C@@H]1n1cc(C(N)=O)c(Nc2ccc(Cl)c(Cl)c2)n1 (single isomer, unassigned) [Example 33-20, 1-[(1S,2S,4S or 1R,2R,4R)-2-cyano-4-hydroxycyclohexyl]-3-[(3,4-dichlorophenyl)amino]-1H-pyrazole-4-carboxamide], the IC50 [1] was 2 nM and the IC50 [2] was 20 nM.

CC(C)(O)C1CN([C@H]2CC[C@H](n3cc(C(N)=O)c(Nc4ccc(C(F)(F)F)cc4)n3)[C@@H](C#N)C2)C1 (single isomer, unassigned) [Example 28-28, 1-{(1S,2S,4S or 1R,2R,4R)-2-cyano-4-[3-(1-hydroxy-1-methylethyl)azetidin-1-yl]cyclohexyl}-3-{[4-(trifluoromethyl)phenyl]amino}-1H-pyrazole-4-carboxamide] gave an IC50 [1] of 3 nM and an IC50 [2] of 77 nM.

Molecule N#C[C@@H]1CC(CN)CCC1n1cc(C(N)=O)c(Nc2ccc(F)cc2)n1 (mixture of isomers) [Example 9, 1-((1R,2R and 1S,2S)-4-(Aminomethyl)-2-cyanocyclohexyl)-3-((4-fluorophenyl)amino)-1H-pyrazole-4-carboxamide] has an IC50 [1] of 12 nM and an IC50 [2] of 247 nM.

N#C[C@@H]1CCCC[C@H]1n1cc(C(N)=O)c(Nc2ccc(S(=O)(=O)NCCN3CCOCC3)cc2)n1 (single isomer, unassigned) [Example 17-68, 1-[(1R,2R or 1S,2S)-2-cyanocyclohexyl]-3-({4-[(2-morpholin-4-ylethyl)sulfamoyl]phenyl}amino)-1H-pyrazole-4-carboxamide] showed an IC50 [1] of 0.4 nM and an IC50 [2] of 1 nM.

For N#C[C@H]1C[C@H](N2CC(F)C2)CC[C@@H]1n1cc(C(N)=O)c(Nc2ccc(S(=O)(=O)C(F)(F)F)cc2)n1 (single isomer, unassigned) [Example 28-112, 1-[(1S,2S,4R or 1R,2R,4S)-2-cyano-4-(3-fluoroazetidin-1-yl)cyclohexyl]-3-({4-[(trifluoro-methyl)sulfonyl]phenyl}amino)-1H-pyrazole-4-carboxamide], the IC50 [1] was 0.45 nM and the IC50 [2] was 6 nM.

With CC(C)(C(=O)O)c1ccc(Nc2nn([C@@H]3CCCC[C@H]3C#N)cc2C(N)=O)cc1 (single isomer, unassigned) [Example 17-43, 2-[4-({4-carbamoyl-1-[(1R,2R or 1S,2S)-2-cyanocyclohexyl]-1H-pyrazol-3-yl}amino)phenyl]-2-methylpropanoic acid] the IC50 [1] was 0.12 nM and the IC50 [2] was 7 nM.

N#C[C@H]1C[C@@H](NCC(F)F)CC[C@@H]1n1cc(C(N)=O)c(Nc2ccc(Cl)c(F)c2)n1 (single isomer, unassigned) [Example 28-90, 3-[(4-chloro-3-fluorophenyl)amino]-1-{(1S,2S,4S or 1R,2R,4R)-2-cyano-4-[(2,2-difluoroethyl)amino]cyclohexyl}-1H-pyrazole-4-carboxamide] was tested, and the IC50 [1] was 4 nM and the IC50 [2] was 35 nM.

Molecule N#C[C@@H]1CCCC[C@H]1n1cc(C(N)=O)c(Nc2ccc(S(=O)(=O)N3CCC(Cc4ccccc4)CC3)cc2)n1 (single isomer, unassigned) [Example 17-69, 3-({4-[(4-benzylpiperidin-1-yl)sulfonyl]phenyl}amino)-1-[(1R,2R or 1S,2S)-2-cyanocyclohexyl]-1H-pyrazole-4-carboxamide] has an IC50 [1] of 30 nM and an IC50 [2] of 67 nM.

N#C[C@H]1C[C@H](N[C@H](C2CC2)C(F)(F)F)CC[C@@H]1n1cc(C(N)=O)c(Nc2ccc(C(F)(F)F)cc2)n1 (single isomer, unassigned) [Example 28-193, 1-[(1S,2S,4R or 1R,2R,4S)-2-cyano-4-{[(1R)-1-cyclopropyl-2,2,2-trifluoroethyl]amino}cyclo-hexyl]-3-{[4-(trifluoromethyl)phenyl]amino}-1H-pyrazole-4-carboxamide] was tested, and the IC50 [1] was 165 nM and the IC50 [2] was 1000 nM.

CC1(O)CN(C(=O)[C@H]2CC[C@H](n3cc(C(N)=O)c(Nc4ccc(Cl)cc4)n3)[C@@H](C#N)C2)C1 (single isomer, unassigned) [Example 35-30, 3-[(4-chlorophenyl)amino]-1-{(1S,2S,4S or 1R,2R,4R)-2-cyano-4-[(3-hydroxy-3-methylazetidin-1-yl)carbonyl]cyclohexyl}-1H-pyrazole-4-carboxamide] gave an IC50 [1] of 10 nM and an IC50 [2] of 180 nM.

COCCNS(=O)(=O)c1ccc(Nc2nn([C@H]3CCCC[C@@H]3C#N)cc2C(N)=O)cc1 (single isomer, unassigned) [Example 17-98, 1-[(1R,2R or 1S,2S)-2-cyanocyclohexyl]-3-({4-[(2-methoxyethyl)sulfamoyl]phenyl}amino)-1H-pyrazole-4-carboxamide] gave an IC50 [1] of 0.25 nM and an IC50 [2] of 1 nM.
